{"source": "patent US10016382B2", "about": "“Method for decreasing skeletal muscle damage and/or oxidative stress in mammals” (LONZA INC., priority 2014, dated 2018)", "assay": "Body composition by DEXA scan, Example 2 part one", "format": "in vivo, dog", "conditions": "for Lean mass (LM) change / Total tissue mass change: over 14 week study", "description": "Each dog was also scanned for body composition as described in Example 1 just prior to the beginning of the study and twenty-four hours following the final endurance run.", "key": {"[1]": {"conditions": "Ex.2 part one, 250 mg/d, both sexes"}, "[2]": {"conditions": "Ex.2 part one, 250 mg/d, females"}}, "data": [{"smiles": "C[N+](C)(C)C[C@H](O)CC(=O)[O-]", "note": "[L-carnitine]", "values": [{"measurement": "Increase in % fat mass", "setting": "Ex.2 part one, 250 mg/d, females, vs 3.01% control females (p=0.3893)", "value": 1.58, "unit": "%"}, {"measurement": "Lean mass (LM) change", "setting": "[1]", "value": 0.68, "unit": "kg"}, {"measurement": "Total tissue mass change", "setting": "[1]", "value": 0.74, "unit": "kg"}, {"measurement": "Lean mass (LM) change", "setting": "[2]", "value": 0.45, "unit": "kg"}, {"measurement": "Total tissue mass change", "setting": "[2]", "value": 0.78, "unit": "kg"}, {"measurement": "Lean mass (LM) change", "setting": "Ex.2 part one, 250 mg/d, males", "value": 0.91, "unit": "kg"}, {"measurement": "Total tissue mass change", "setting": "Ex.2 part one, 250 mg/d, males", "value": 0.70, "unit": "kg"}, {"measurement": "% Fat", "setting": "Female, Change", "value": "1.58 ± 1.29", "unit": "%"}, {"measurement": "BMC", "setting": "Female, Change", "value": "9.54 ± 6.72", "unit": "g"}, {"measurement": "BMD", "setting": "Female, Change", "value": "0.0029 ± 0.005", "unit": "g/cm2"}, {"measurement": "Fat", "setting": "Female, Change", "value": "0.56 ± 0.35", "unit": "kg"}, {"measurement": "Lean Mass", "setting": "Female, Change", "value": "0.45 ± 0.21", "unit": "kg"}, {"measurement": "Total Tissue", "setting": "Female, Change", "value": "0.78 ± 0.27", "unit": "kg"}, {"measurement": "% Fat", "setting": "Female, Final", "value": "18.43 ± 1.75", "unit": "%"}, {"measurement": "BMC", "setting": "Female, Final", "value": "716.5 ± 30.63", "unit": "g"}, {"measurement": "BMD", "setting": "Female, Final", "value": "0.58 ± 0.01", "unit": "g/cm2"}, {"measurement": "Fat", "setting": "Female, Final", "value": "4.62 ± 0.57", "unit": "kg"}, {"measurement": "Lean Mass", "setting": "Female, Final", "value": "19.95 ± 0.65", "unit": "kg"}, {"measurement": "Total Tissue", "setting": "Female, Final", "value": "24.34 ± 0.94", "unit": "kg"}, {"measurement": "% Fat", "setting": "Female, Initial", "value": "16.85 ± 2.1", "unit": "%"}, {"measurement": "BMC", "setting": "Female, Initial", "value": "706.96 ± 30.19", "unit": "g"}, {"measurement": "BMD", "setting": "Female, Initial", "value": "0.58 ± 0.01", "unit": "g/cm2"}, {"measurement": "Fat", "setting": "Female, Initial", "value": "4.07 ± 0.59", "unit": "kg"}, {"measurement": "Lean Mass", "setting": "Female, Initial", "value": "19.49 ± 0.69", "unit": "kg"}, {"measurement": "Total Tissue", "setting": "Female, Initial", "value": "23.56 ± 0.86", "unit": "kg"}, {"measurement": "% Fat", "setting": "Male, Change", "value": "0.49 ± 0.61", "unit": "%"}, {"measurement": "BMC", "setting": "Male, Change", "value": "6.54 ± 6.57", "unit": "g"}, {"measurement": "BMD", "setting": "Male, Change", "value": "0.011 ± 0.005", "unit": "g/cm2"}, {"measurement": "Fat", "setting": "Male, Change", "value": "0.22 ± 0.2", "unit": "kg"}, {"measurement": "Lean Mass", "setting": "Male, Change", "value": "0.91 ± 0.22", "unit": "kg"}, {"measurement": "Total Tissue", "setting": "Male, Change", "value": "0.7 ± 0.19", "unit": "kg"}, {"measurement": "% Fat", "setting": "Male, Final", "value": "14.81 ± 1.05", "unit": "%"}, {"measurement": "BMC", "setting": "Male, Final", "value": "927.39 ± 25.32", "unit": "g"}, {"measurement": "BMD", "setting": "Male, Final", "value": "0.65 ± 0.01", "unit": "g/cm2"}, {"measurement": "Fat", "setting": "Male, Final", "value": "4.56 ± 0.36", "unit": "kg"}, {"measurement": "Lean Mass", "setting": "Male, Final", "value": "26.54 ± 0.71", "unit": "kg"}, {"measurement": "Total Tissue", "setting": "Male, Final", "value": "30.67 ± 0.72", "unit": "kg"}, {"measurement": "% Fat", "setting": "Male, Initial", "value": "14.31 ± 1.16", "unit": "%"}, {"measurement": "BMC", "setting": "Male, Initial", "value": "920.86 ± 25.96", "unit": "g"}, {"measurement": "BMD", "setting": "Male, Initial", "value": "0.64 ± 0.01", "unit": "g/cm2"}, {"measurement": "Fat", "setting": "Male, Initial", "value": "4.34 ± 0.42", "unit": "kg"}, {"measurement": "Lean Mass", "setting": "Male, Initial", "value": "25.63 ± 0.58", "unit": "kg"}, {"measurement": "Total Tissue", "setting": "Male, Initial", "value": "29.97 ± 0.75", "unit": "kg"}, {"measurement": "% Fat", "setting": "all dogs, Change", "value": "1.04 ± 0.71", "unit": "%"}, {"measurement": "BMC", "setting": "all dogs, Change", "value": "8.04 ± 4.62", "unit": "g"}, {"measurement": "BMD", "setting": "all dogs, Change", "value": "0.007 ± 0.003", "unit": "g/cm2"}, {"measurement": "Fat", "setting": "all dogs, Change", "value": "0.39 ± 0.2", "unit": "kg"}, {"measurement": "Lean Mass", "setting": "all dogs, Change", "value": "0.68 ± 0.16", "unit": "kg"}, {"measurement": "Total Tissue", "setting": "all dogs, Change", "value": "0.74 ± 0.16", "unit": "kg"}, {"measurement": "% Fat", "setting": "all dogs, Final", "value": "16.62 ± 1.06", "unit": "%"}, {"measurement": "BMC", "setting": "all dogs, Final", "value": "821.95 ± 28.14", "unit": "g"}, {"measurement": "BMD", "setting": "all dogs, Final", "value": "0.61 ± 0.01", "unit": "g/cm2"}, {"measurement": "Fat", "setting": "all dogs, Final", "value": "4.59 ± 0.33", "unit": "kg"}, {"measurement": "Lean Mass", "setting": "all dogs, Final", "value": "23.24 ± 0.79", "unit": "kg"}, {"measurement": "Total Tissue", "setting": "all dogs, Final", "value": "27.5 ± 0.84", "unit": "kg"}, {"measurement": "% Fat", "setting": "all dogs, Initial", "value": "15.58 ± 1.2", "unit": "%"}, {"measurement": "BMC", "setting": "all dogs, Initial", "value": "813.91 ± 28.38", "unit": "g"}, {"measurement": "BMD", "setting": "all dogs, Initial", "value": "0.608 ± 0.01", "unit": "g/cm2"}, {"measurement": "Fat", "setting": "all dogs, Initial", "value": "4.2 ± 0.35", "unit": "kg"}, {"measurement": "Lean Mass", "setting": "all dogs, Initial", "value": "22.56 ± 0.74", "unit": "kg"}, {"measurement": "Total Tissue", "setting": "all dogs, Initial", "value": "26.76 ± 0.83", "unit": "kg"}]}]}
